For 10 compounds, IC50 results are on record in ChEMBL document CHEMBL1126898 (J Med Chem, 1993).

Sodium-dependent dopamine transporter, sequence (P23977 whole entry): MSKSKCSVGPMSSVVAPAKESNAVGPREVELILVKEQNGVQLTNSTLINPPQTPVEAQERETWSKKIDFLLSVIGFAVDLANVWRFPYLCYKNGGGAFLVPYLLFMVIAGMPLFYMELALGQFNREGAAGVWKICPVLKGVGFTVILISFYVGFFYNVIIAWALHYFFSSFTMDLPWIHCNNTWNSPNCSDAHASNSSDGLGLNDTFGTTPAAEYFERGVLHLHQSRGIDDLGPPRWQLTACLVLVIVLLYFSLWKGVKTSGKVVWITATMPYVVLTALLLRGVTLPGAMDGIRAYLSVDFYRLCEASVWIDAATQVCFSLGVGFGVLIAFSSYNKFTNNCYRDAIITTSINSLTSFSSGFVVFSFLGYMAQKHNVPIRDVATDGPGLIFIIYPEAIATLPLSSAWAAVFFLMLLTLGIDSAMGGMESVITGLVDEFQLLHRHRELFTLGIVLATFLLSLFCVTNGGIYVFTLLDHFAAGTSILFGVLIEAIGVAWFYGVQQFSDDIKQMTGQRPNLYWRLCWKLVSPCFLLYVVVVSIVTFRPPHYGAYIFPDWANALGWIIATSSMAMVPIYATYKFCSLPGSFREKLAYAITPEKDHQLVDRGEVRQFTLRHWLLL

The experiment addresses Sodium-dependent dopamine transporter (Rattus norvegicus, UniProt P23977). The experiment can be described thus: Inhibition of [3H]WIN-35428 binding to dopamine transporter in rat striatal membranes. It counts as cell membranes, Membrane.
Turning to `CN1C2CCC1C(CO)[C@H](OC(=O)c1ccccc1)C2` (stereo not given in full), the concentration for half-maximal inhibition (IC50) was found to be 0.561 µM. `COC(=O)[C@H]1C2CCC(C[C@@H]1OC(=O)c1ccccc1)N2` (stereo in doubt; form 1) [PSEUDOCOCAINE] came in with a 50% inhibitory concentration (IC50) of 22.5 µM. The value for `CN1C2CCC1C(C(=O)Oc1ccccc1)[C@H](OC(=O)c1ccccc1)C2` (stereo not given in full) was 0.112 µM; that for `COC(=O)C1C2CCC(C[C@H]1c1ccccc1)N2C` (stereo not given in full) was 0.023 µM. The value for `COC(=O)C1C2CCC(C[C@H]1OC(=O)c1ccccc1)N2` (stereo not given in full) was 0.303 µM; that for `COC(=O)[C@H]1C2CCC(C[C@@H]1OC(=O)c1ccccc1)N2` (stereo in doubt; form 2) [PSEUDOCOCAINE] was 15.8 µM; that for `CN1C2CCC1C(C(=O)OCCc1ccccc1)[C@H](OC(=O)c1ccccc1)C2` (stereo not given in full) was 0.248 µM. The value for `COC(=O)C1C2CCC(C[C@H]1OC(=O)c1ccccc1)N2Cc1ccccc1` (stereo not given in full) was 0.668 µM; that for `COC(=O)C1C2CCC(C[C@H]1c1ccc(N)cc1)N2C` (stereo not given in full) was 0.025 µM; that for `CN1C2CCC1C(C(=O)OCCc1ccc(N)cc1)[C@H](OC(=O)c1ccccc1)C2` (stereo not given in full) was 0.072 µM.

By IC50 is commonly meant the midpoint of a concentration-inhibition curve. Lower therefore signals greater potency in that assay.
